The record followed here is US4992470A, “Method of enhancing immune response of mammals” (Iowa State University Research Foundation, Inc., priority 1990, dated 1991).

One assay deals with lymphocytes. The assay can be described thus: In vitro effects of leucine or leucine metabolites on PHA-stimulated lymphocyte blastogenesis (3H-thymidine incorporation). The assay is classed as cell-based, bovine. As to conditions: Bos taurus, Lymphocyte, 72 h; final concentration 1 mM; PHA stimulated; read-out: % Change from No Additive, in vitro lymphocyte blastogenesis (Mean Percent Change, SEM). The method, then:
Lymphocyte Blastogenesis Determinations. Blood collections, lymphocyte isolation and blastogenesis assays were performed on isolated bovine cells by using a 3-d culture procedure as described previously in Kuhlman, et al. (1988), J. Nutr., 118:1564-1569.
Isolated lymphocytes were exposed to 1 and 10 mM Leu and KIC and the metabolites isovalarate, β-hydroxy-β-methyl butyrate (HMB), β-hydroxy-β-methyl glutarate, butyrate, acetate, acetone, acetoacetate, and β-hydroxy butyrate (BOHB). The cells were then stimulated with the mitogen phytohemagglutinin, and incorporation of ^3 H-thymidine into the DNA of the dividing lymphocytes was measured.
Leucine and Leucine Metabolites. Most of the compounds listed in Table B were purchased from Sigma Chemical Company, St. Louis, MO. KIC was purchased from SOBAC (Paris, France), HMB was synthesized as described in Example 1, and the calcium salt of HMB was purified by crystallization in 95% ethanol. The calcium salt was converted to a sodium salt form and used in subsequent assays. The pH of all compounds was adjusted to approximately 7.3. Compounds were passed through a 0.2-um filter assembly to assure sterility.

A further assay deals with Mycoplasma hyopneumoniae. Briefly: Pigs infected with Mycoplasma: lung lesions, lung fluorescent antibodies, antibody titers. The assay is classed as in vivo. An excerpt:
Twelve specific pathogen free (SPF) pigs 4-5 weeks of age were distributed into two groups, each being blocked by gender and litter. All pigs were fed approximately 4% of their body weight of a commercially purchased starter ration. Pigs were penned individually and allowed free access to water.
Diets were supplemented with one of two dietary treatments: Control (limestone)(n=6) and HMB (n=6). Dietary treatments were fed at 0.05% of the body weight. HMB was synthesized by the method of Example 1. One week later, pigs were injected with 5 ml/30 kg body weight of a 20% suspension of sheep red blood cells (SRBC) subcutaneously.
Fourteen days post dietary treatments, all pigs were challenged via intratracheal inoculation with 5 ml of a ground lung suspension. The suspension was derived from pig pneumonic tissue obtained from a pig experimentally inoculated with Mycoplasma hyopneumoniae. Blood samples were collected once a week for the evaluation of antibodies produced in response to the SRBC and Mycoplasma hyopneumoniae antigenic stimuli. An agglutination assay was used to determine antibody titers produced against SRBC. Titers to Mycoplasma hyopneumoniae were determined using a serum complement fixation assay. At necropsy, the extent of macroscopic pneumonia lesions was recorded and samples from all pigs were submitted for histopathology to assay microscopic lesions. Lung and bronchi samples were cultured and evaluated for the presence of Mycoplasma species (i.e., M. hyorhinis, M. hyosynoviae, and M. hyopneumoniae) and other easily isolated bacteria (i.e., bordetella, pasteurella, and hemophilus).

The next assay has as its system T lymphocytes. The assay can be described thus: Activation of immune function of T lymphocytes, HMB compared with KIC. Further details: species or system mammals.

`CC(C)(O)CC(=O)O` [HMB, β-hydroxy-β-methyl butyric acid]: the activation at 1000 µM in the assay with lymphocytes came to 78%. Further, in the assay on Mycoplasma hyopneumoniae (HMB-fed pigs), the “M. hyopneumoniae colonies by fluorescent antibody technique (in words)” value is listed as “decreased”. The “Prevention of Mycoplasmal lung damage (in words)” value with Mycoplasma hyopneumoniae (HMB-fed pigs infected with M. hyopneumoniae) is given as “can prevent some of the lung damage associated with a Mycoplasmal lung agent”. In the assay with Mycoplasma hyopneumoniae (HMB-fed pigs vs control), the “Lung or bronchi evaluations (in words)” value is reported as “no significant differences were seen in the lung or bronchi evaluations” and the “M. hyopneumoniae antibody titers (in words)” value is given as “no significant differences”. Further, the “Lung fluorescent antibodies to M. hyopneumoniae” value in the assay on Mycoplasma hyopneumoniae (HMB-fed pigs, control 12.6) is 10.3. In the assay with Mycoplasma hyopneumoniae (HMB-fed pigs, control 18.7), the “% lung showing lesions” value came out at 13.7%. For the same molecule, the “M. hyopneumoniae peak titers” value in the assay with Mycoplasma hyopneumoniae (HMB-fed pigs, serum complement fixation, control 7.1) amounted to 6.7. In the assay on Mycoplasma hyopneumoniae (vs KIC-fed or control animals, not statistically significant), the “Extent of mycoplasmal lung infection (in words)” value is “lesser extent of mycoplasmal lung infection than did KIC-fed or control animals”. The “Activation of immune function of T lymphocytes relative to KIC (in words)” value in the assay with T lymphocytes is on record as “markedly more effective for activating the immune function of T lymphocytes”.
